Data as given in patent US20120225904A1, “New 7-Phenyl-[1,2,4]triazolo[4,3-a]Pyridin-3(2H)-One Derivatives” (priority 2009, published 2012).

Each compound was assayed against T1, human p38alfa (SAPKa) enzyme (Homo sapiens, UniProt Q16539) (assay: p38alpha enzymatic inhibition assay (FRET, ATF2 substrate)). Details: 1 h pre-incubation; ATF2 0.62 μM, ATP 60 μM; 1 h at 25° C.; read-out: p38α IC50.
T1 construct: purchased University of Dundee
Format: biochemical
Procedure: Enzymatic activity assay was performed in 96-well microtiter plates (Corning, catalog number # 3686) using a total volume of 50 μl of an assay buffer composed of 50 mM HEPES (4-(2-hydroxyethyl)-1-piperazineethanesulfonic acid) pH 7.5, 10 mM MgCl2, 1.75 mM Na3VO4.
Various concentrations of the test compound or vehicle controls were pre-incubated for one hour with 0.055 μg/ml of the human p38alfa (SAPKa) enzyme (obtained from University of Dundee). The reaction started by addition of biotinylated ATF2 substrate and ATP in concentrations around their Km values (final concentration 0.62 μM and 60 μM respectively) and took place for one hour at 25° C. Addition of the detection reagents, streptavidin—XL665 and anti-phosphoresidue antibody coupled to Europium cryptate, caused the juxtaposition of the cryptate and the XL665 fluorophore, resulting in fluorescence energy transfer (FRET).The FRET intensity depends on the amount of bounded cryptate antibody, which is proportional to the extent of substrate phosphorylation. FRET intensity was measured using Victor 2V spectrofluorometer.
Data were analyzed by non-linear regression (Hill equation) to generate a dose-response curve. The calculated IC50 value is the concentration of the test compound that caused a 50% decrease in the maximal FRET intensity.

T1 sequence (Q16539 whole entry): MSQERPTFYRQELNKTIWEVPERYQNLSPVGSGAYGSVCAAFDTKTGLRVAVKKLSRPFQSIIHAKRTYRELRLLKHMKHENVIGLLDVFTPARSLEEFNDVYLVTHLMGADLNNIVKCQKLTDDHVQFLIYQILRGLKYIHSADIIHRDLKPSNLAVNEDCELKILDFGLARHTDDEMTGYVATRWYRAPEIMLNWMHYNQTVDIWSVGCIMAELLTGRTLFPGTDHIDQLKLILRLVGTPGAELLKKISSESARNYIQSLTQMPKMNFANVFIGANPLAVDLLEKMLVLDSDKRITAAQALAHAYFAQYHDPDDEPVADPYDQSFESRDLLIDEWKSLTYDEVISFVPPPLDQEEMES

Row | IC50 | Compound
1 | 2 nM | Cc1c(F)cc(C(=O)NC2CC2)cc1-c1ccn2c(=O)n(CC(C)(C)C)nc2c1 [Example 2, N-cyclopropyl-3-[2-(2,2-dimethylpropyl)-3-oxo-2,3-dihydro[1,2,4]triazolo[4,3-a]pyridin-7-yl]-5-fluoro-4-methylbenzamide]
2 | 1.08 nM | Cc1c(F)cc(C(=O)NC2CC2)cc1-c1ccn2c(=O)n(-c3ccccc3Cl)nc2c1 [Example 7, 3-[2-(2-Chlorophenyl)-3-oxo-2,3-dihydro[1,2,4]triazolo[4,3-a]pyridin-7-yl]-N-cyclopropyl-5-fluoro-4-methylbenzamide]
3 | 12 nM | Cc1ccc2c(NC3CC3)noc2c1-c1ccn2c(=O)n(CC(C)(C)C)nc2c1 [Example 11]
